According to patent publication US9656949B2, “Substituted carboxylic acid derivatives as aggrecanase inhibitors for the treatment of osteoarthritis” (MERCK PATENT GMBH, priority 2013, dated 2017):
pIC50: −log10 of the molar value. Values after ≈ are worked out from the molar mass of the structure shown. Starred links: 1 amine or outer side, 2 acyl side, 3 side chain; linkers in the order of their positions; H or OH if unused. Non-standard residues stand in square brackets, D forms with d. Residues, ends and D or L forms follow the SMILES beside them. *: point of attachment. X1 = N[C@@H](CC(=O)[*:2])[C@H](Cc1ccccc1)N[*:1]; Isovaleryl = CC(C)CC(=O)*

Columns and labels:
[1] = system: carrageenan-induced inflammation of rat knee joint; assay: Investigation of the anti-hyperalgesic effect in animals (carrageenan injected intra-articularly into rat knee joint); assay type: in vivo; details: intra-articular administration 30 minutes before CAR
Description: In order to induce an inflammation reaction, a carrageenan solution (CAR, 1%, 50 μl) was injected intra-articularly on one side into a rat knee joint. The uninjected side was used for control purposes. Six animals per group were used. The […] was determined by means of a micrometer screw (medial-lateral on the knee joint), and the thermal hyperalgesia was determined by means of a directed infrared light source by the Hargreaves method (Hargreaves et al., 1988) on the sole of the foot. Since the site of inflammation (knee joint) is different from the site of measurement (paw sole), use is made here of the term secondary thermal hyperalgesia, the mechanism of which is of importance for the discovery of effective analge-sics.
Experimental description of thermal hyperalgesia (Hargreaves test): the experimental animal is placed in a plastic chamber on a quartz sheet. Before testing, the experimental animal is firstly given about 5-15 minutes time to familiarise itself with the environment. […] Light reflected by the paw is recorded as long as the experimental animal sits still. Withdrawal of the paw interrupts this reflection, after which the infrared light source is switched off and the time from switching on to switching off is recorded. […]

[2] = molecular target: T1, human recombinant AdamTS-5 (Homo sapiens, UniProt Q9UNA0); assay: Biochemical activity testing of ADAMTS-5: aggrecan peptide cleavage assay (AlphaScreen); details: 4.5 nM human recombinant AdamTS-5, biotinylated 43mer aggrecan peptide, 180 min at 37° C.; read-out: IC50 [ADAM-NTS5]M
T1 construct: purchased R&D systems, Wiesbaden, Germany
T1 sequence (Q9UNA0 262-930): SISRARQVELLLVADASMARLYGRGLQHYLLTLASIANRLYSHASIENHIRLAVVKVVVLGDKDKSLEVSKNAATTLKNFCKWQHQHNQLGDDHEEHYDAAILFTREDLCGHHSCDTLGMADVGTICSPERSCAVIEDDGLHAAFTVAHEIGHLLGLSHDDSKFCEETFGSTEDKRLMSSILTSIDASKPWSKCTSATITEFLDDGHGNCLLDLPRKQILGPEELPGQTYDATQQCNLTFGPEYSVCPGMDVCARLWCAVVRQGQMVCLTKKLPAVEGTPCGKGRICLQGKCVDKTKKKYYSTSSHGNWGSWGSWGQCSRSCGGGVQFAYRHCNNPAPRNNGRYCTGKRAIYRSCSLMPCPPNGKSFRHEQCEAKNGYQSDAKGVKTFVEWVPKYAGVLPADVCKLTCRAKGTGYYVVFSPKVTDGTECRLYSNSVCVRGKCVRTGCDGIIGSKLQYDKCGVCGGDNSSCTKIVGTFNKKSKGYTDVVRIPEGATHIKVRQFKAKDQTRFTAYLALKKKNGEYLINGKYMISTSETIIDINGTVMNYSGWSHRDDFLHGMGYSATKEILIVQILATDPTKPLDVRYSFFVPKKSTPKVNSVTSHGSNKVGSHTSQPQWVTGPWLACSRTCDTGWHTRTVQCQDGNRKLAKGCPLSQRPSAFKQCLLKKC
Description: ADAMTS-5 is a metallo protease with glutamyl-endoprotease activity and cleaves aggrecan core protein at E373-A374 in the interglobular domain. To fully analyse the inhibitory potential of compounds on AdamTS-5 activity an Alphascreen® assay with a biotinylated 43mer aggrecan oligopeptide as substrate was performed. Cleavage by ADAMTS-5 caused production of a neoepitop N-terminus ARGS at the C-terminal fragment. The detection of this product is performed with streptavidin-AlphaScreen® donor beads binding to the biotin label and an anti-neoepitop (“ARGSV”) antibody that anchors anti-mouse IgG-coated AlphaLisa® acceptor beads to the other end of the generated fragment. Thereby, donor and acceptor beads get in proximity and a luminescence Alphascreen® signal is generated via the release of singlet oxygen. The cleavage activity was detectable directly by the increase in Alphascreen® signal.
The aggrecan peptide cleavage assay was performed as 384 well AlphaScreen® (Perkin Elmer) assay format in Perkin Elmer 384 AlphaPlate (proxiplate) shallow well microtiter plates and was used for high throughput screen in a total assay volume of 10 μl. 4.5 nM human recombinant AdamTS-5 (R&D systems, Wiesbaden, Germany) and 30 nM biotinylated peptide […]-K(bio) (custom-made, Biosynthan, Berlin, Germany) as substrate were incubated in a total volume of 6 μl (100 mM Tris/HCl, 150 mM NaCl, 10 mM CaCl2, 0.05% Brij®-35, 1% DMSO, 0.084% BSA, pH 7.5) in the absence or presence of the test compound (10 dilution concentrations) for 180 min at 37° C. The reaction was stopped and the first detection step performed by the addition of 2 μl detection solution 1 (48 mM EDTA, 8 nM aggrecan antibody N-term neoepitope ARG, mouse monoclonal BC3 antibody (MDBioproducts, Egg, Switzerland), 100 μg/ml Streptavidin Alphascreen® donor beads (Perkin Elmer, Rodgau, Germany) in 100 mM Tris/HCl, 150 mM NaCl, 0.05% Brij®-35, 0.1% BSA, pH 7.5). After an one-hour incubation at 37° C. 2 μl of the second detection solution (25 μg/ml anti-mouse AlphaLisa® acceptor beads (Perkin Elmer, Rodgau, Germany) in 100 mM Tris/HCl, 150 mM NaCl, 0.05% Brij®-35, 0.1% BSA, pH 7.5 were added. The plates were incubated for […] in the dark.
The AlphaScreen signal was measured with an Envision multimode reader (Perkin Elmer LAS Germany GmbH) with the Alphascreen protocol from Perkin Elmer (laser mode) emission wavelength 570 nm. The full value used was the inhibitor-free reaction. For the zero value a pharmacological reference was used. The inhibitory values (IC50) for the compounds were determined using either the program Symyx Assay Explorer® or Condosseo® from GeneData.

[3] = system: bovine cartilage explants; assay: GAG-Assay (GAG release from bovine cartilage explants); assay type: cell-based; details: Bos taurus, GAG release into supernatant, unit inferred
Description: The assay is based on bovine cartilage explants from the metacarpal joint (MCP) with a diameter of 4 mm and a thickness of 1-2 mm. Explants are freshly harvested at the day of slaughter. Before the start of the experiment, explants are incubated in DMEM medium+10% serum+30 μg/ml ascorbic acid for 48 h (200 μl). The pre-incubation is performed to enlarge the assay window. Explants are incubated at 37° C. and 7.5% CO2. The number of replicates for all groups is n=4.
Induction of cartilage degradation is induced by treatment of the explants with IL-1 alpha (10 ng/ml) in serum-free medium for 5 days. As negative control, explants are left untreated in serum-free DMEM medium. This control is not part of the baseline calculation but an internal control for the degree of degradation which is strictly dependent on the IL1-alpha quality. IL-1 alpha induces the activity of proteases such as ADAMTS-5 and MMPs which in turn degrade the matrix. Degradation products of the matrix (GAG: glycosaminoglycan) can be measured in the supernatant. The level of GAG release induced by IL1-alpha is defined as the 0% effect level. […] This DRC is the basis for the IC50 calculation.
IL-1 alpha and the ADAMTS-5 inhibitors are incubated for 5 days, then GAG is measured in the supernatant. The explants are digested with papain to determine the amount of GAG in the explants.
In order to investigate the effect of potential cathepsin D inhibitors on cartilage degradation, a pH-induced model based on bovine explants is used. The pH of the medium in which the explants are cultivated is matched here to the pathophysiological pH of an arthritic knee. This pH is pH 5.5. […] The amount of GAGs liberated can be determined quantitatively with the aid of DMMB (dimethylmethylene blue hydrochloride). If sulfated GAGs are detected using dimethylmethylene blue hydrochloride, the decrease in the absorption at 633 nm is utilised. […] In order to determine the concentration, a calibration line is also recorded using chondroitin sulfate. […]

Solubility pH7.4 = assay type: physicochemical; details: pH 7.4, aqueous buffer

Row | SMILES | CAR-induced swelling ([1]; rat knee joint, TAC 10 μg/joint) | pIC50 [2] | pIC50 [3] | solubility (Solubility pH7.4) [µg/mL] | thermal hyperalgesia (Hargreaves test) ([1]; rat, difference in withdrawal times between inflamed and non-inflamed paw)
1 | C[C@]12C=CC(=O)C=C1CC[C@H]1[C@@H]3C[C@@H](O)[C@](O)(C(=O)CO)[C@@]3(C)C[C@H](O)[C@@]12F [TAC, Triamcinolone, reference compound] | capable of reducing the CAR-induced swelling |  |  |  | 
2 | CCC[C@@H](C[C@H](NC(=O)c1ccc(-c2ccccc2)cc1)C(=O)NC(C)(C)Cc1ccc(F)cc1)C(=O)O [Compound 7] |  | 6.77 | 6.00 | 157 (≈ 303 µM) | 
3 | C[C@@H](C[C@H](NC(=O)c1ccc(-c2ccccc2)cc1)C(=O)NC(C)(C)Cc1ccc(F)cc1)C(=O)O [Compound 5, (2S,4S)-4-[(Biphenyl-4-carbonyl)-amino]-4-[2-(4-fluoro-phenyl)-1,1-dimethyl-ethylcarbamoyl]-2-methyl-butyric acid] |  | 7.07 | 5.74 | 677 (≈ 1380 µM) | 
4 | COC[C@@H](C[C@H](NC(=O)c1ccc(-c2ccccc2)cc1)C(=O)NC(C)(C)Cc1ccc(F)cc1)C(=O)O [Compound 8] |  | 6.77 | 5.92 | 838 (≈ 1610 µM) | 
5 | CC[C@H](C)[C@H](NC(=O)C[C@H](N)[C@H](Cc1ccccc1)NC(=O)[C@@H](NC(=O)[C@H](CC(C)C)NC(=O)CC(C)C)C(C)C)C(=O)N[C@H](C(=O)O)C(C)C [specific DDR2 inhibitor, (S)-2-[(2S,3S)-2-((3S,4S)-3-amino-4-{(S)-3-methyl-2-[(S)-4-methyl-2-(3-methyl-butyrylamino)pentanoylamino]butyrylamino}-5-phenylpentanoylamino)-3-methylpentanoylamino]-3-methylbutyric acid] (Isovaleryl-LV[X1]IV-OH) |  |  |  |  | able to reduce the extent of thermal hyperalgesia as a function of the dose
